# In patent US20230149401A1 (priority 2020, published 2023):
# Like-named read-outs stand apart in the source and are kept apart here. Residues, ends and D or L forms follow the SMILES beside them.
# Assays:
# SARS-CoV-2 [1] = experiment: microbe, parasite or virus in culture; assay type: cell-based
# TMPRSS2 [2] = biological target: T1, TMPRSS2 (Homo sapiens, UniProt O15393); details: HeLa-ACE2 cells, 120 μM
# Experimental: HeLa-ACE2 cells were transiently transfected with empty vector (V) or increasing cDNA ratios of V5-tagged WT spike protein to TMPRSS2 (spike-V5:TMPRSS2) as indicated and 24 h later incubated for an additional 24 h in serum-free media containing 120 μM Camostat (+) or control DMSO (−) (FIG. 12A). Immunoblot of the 24 h conditioned media (concentrated 10-fold) was first probed for S1 and S1′ using an antibody against S1-subunit (GTX135356), stripped and next probed for sACE2 (ab108252) and mature TMPRSS2m (14437-1-AP) (upper panel). Cell lysates were immunoblotted for spike protein (V5-mAb), ACE2 (ab108252) and β-Actin (lower panel). HeLa-ACE2 cells were transiently transfected for 48 h with empty vector (V), TMPRSS2, and V5-tagged spike protein (S) alone or in combination with TMPRSS2 (S+TMPRSS2) in a ratio of 1:0.7 (FIG. 12B). For each condition, 1 ml of 24h serum free conditioned media was immunoprecipitated with 2 μg goat polyclonal ACE2 antibody (AF933, R&D) and 60 μl TrueBlot anti-goat Ig IP beads (00-8844-25; Rockland) and analyzed by western blot first for S1 and S1′ (GTX135356) and next for sACE2 (rabbit MAB; ab108252) (upper right panels). For reference, 50% of the media before immunoprecipitation (concentrated 10-fold) (input) was similarly analyzed (upper left panels). Immunoblots of the cell lysates (spike protein: V5-mAb) are also shown (lower panels).
# To confirm that S2a, and S2b are generated by TMPRSS2 activity in the ER, HeLa-ACE2 cells were incubated with 120 μM Camostat, known to inhibit TMPRSS2.
# furin [3] = biological target: T2, furin (Homo sapiens, UniProt P09958); experiment: biochemical
# Target sequence in this assay (P09958 108-794): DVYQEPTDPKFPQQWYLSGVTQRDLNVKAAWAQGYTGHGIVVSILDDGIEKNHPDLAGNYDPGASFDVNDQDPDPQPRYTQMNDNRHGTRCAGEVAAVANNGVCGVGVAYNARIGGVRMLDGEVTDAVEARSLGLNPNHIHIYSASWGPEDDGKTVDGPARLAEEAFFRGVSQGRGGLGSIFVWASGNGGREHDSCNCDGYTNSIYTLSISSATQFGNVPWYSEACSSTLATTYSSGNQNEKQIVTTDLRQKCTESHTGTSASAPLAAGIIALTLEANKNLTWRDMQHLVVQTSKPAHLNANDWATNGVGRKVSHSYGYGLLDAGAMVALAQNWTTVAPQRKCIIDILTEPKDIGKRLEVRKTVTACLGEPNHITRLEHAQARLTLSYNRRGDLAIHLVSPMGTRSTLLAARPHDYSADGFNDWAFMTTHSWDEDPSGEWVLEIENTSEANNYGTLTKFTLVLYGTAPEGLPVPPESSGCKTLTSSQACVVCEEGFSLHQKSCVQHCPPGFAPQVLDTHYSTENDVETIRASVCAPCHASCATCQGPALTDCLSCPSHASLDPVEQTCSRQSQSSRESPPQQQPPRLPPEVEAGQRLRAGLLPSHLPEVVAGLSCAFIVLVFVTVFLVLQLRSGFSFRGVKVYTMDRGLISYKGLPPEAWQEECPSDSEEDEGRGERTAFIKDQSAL
# Experimental: Furin and TRMPSS2 fluorogenic assays: Recombinant furin was purchased from BioLegend (#719406), TRMPSS2 from Cusabio and the DABCYLGlu-EDANS labelled peptides encompassing the different cleavage sites (Supplementary Table 1) were purchased from Genscript. Reactions were performed at room temperature in black 384-well polystyrene low volume plates (CELLSTAR-Greiner Bio-One #784476) at a final volume of 15 μL. […] Cleavage of the synthetic peptides was quantitated by determining the increase of EDANS (493 nM) fluorescence following release of the DABCYL quencher, which is excited at 335 nM using a Safire 2 Tecan fluorimeter. The fluorescence was followed during 90 min, and the enzymatic activity was deduced by measurement of the increase of fluorescence during the linear phase of the reaction. Each reaction was performed in triplicate and the standard deviation was calculated using Excel-ecart type function
# [4] = tested on: SARS-CoV-2 Spike ACE2-dependent cell-to-cell fusion; experiment: microbe, parasite or virus in culture; assay type: cell-based; details: Severe acute respiratory syndrome coronavirus 2; 300 nM
# [5] = tested on: endogenous furin-like enzymes; assay type: cell-based; details: HeLa-ACE2 cells
# TMPRSS2 [6] = biological target: T1, TMPRSS2; assay type: cell-based; design: expressed in transfected cells; host or cells: HeLa; details: HeLa cells
# [7] = tested on: HIV particles pseudotyped with SARS-CoV-2 S; assay type: cell-based
# [8] = tested on: endogenous furin-like enzymes; assay type: cell-based, Chinese hamster; details: BHK21 cells; Compound 192/219 at 0.3, 1 or 10 μM, RVKR at 50 μM; 24 h
# furin [9] = biological target: T2, furin; experiment: Biochemical PC-inhibition assay, substrate FAM-[…]-TAMRA; design: furin (108-574-Tev-Flag-6His); Tev site (C); Flag (C); 6His (C); made in house; host or cells: BacMam transduced CHO cells
# Target sequence in this assay (P09958 108-574): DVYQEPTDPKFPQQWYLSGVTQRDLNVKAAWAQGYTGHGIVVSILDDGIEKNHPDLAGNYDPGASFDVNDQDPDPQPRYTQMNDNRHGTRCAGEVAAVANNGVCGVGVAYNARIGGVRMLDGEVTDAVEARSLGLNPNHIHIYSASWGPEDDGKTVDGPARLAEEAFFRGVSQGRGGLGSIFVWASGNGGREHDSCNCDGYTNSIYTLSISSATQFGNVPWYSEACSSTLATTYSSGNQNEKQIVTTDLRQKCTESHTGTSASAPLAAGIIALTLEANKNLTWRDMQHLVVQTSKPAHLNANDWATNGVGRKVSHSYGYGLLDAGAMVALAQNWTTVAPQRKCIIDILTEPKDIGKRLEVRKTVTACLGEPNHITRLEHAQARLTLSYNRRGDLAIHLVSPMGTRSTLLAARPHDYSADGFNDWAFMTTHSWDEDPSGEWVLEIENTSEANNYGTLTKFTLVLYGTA
# Experimental: Biochemical assay: The proprotein convertases furin (108-574-Tev-Flag-6His), PC5A (PCSK5; 115-63-Tev-Flag-6His), PACE4 (PCSK6; 150-693-Tev-Flag-6His), and PC7 (PCSK7; 142-634-Tev-Flag-6His) enzymes were purified from BacMam transduced CHO cells. Reactions were performed in black 384-well polystyrene low volume plates (Greiner) at a final volume of 10 μL. […] The plates were centrifuged at 500×g for 1 minute and incubated at room temperature for two hours. Enzyme inhibition was then quantified using an Envision instrument (PerkinElmer). Data were normalized to maximal inhibition determined by 1 μM Decanoyl-Arg-Val-Lys-Arg-Chloromethylketone (Calbiochem #344930).
# SARS-CoV-2 [10] = assay type: cell-based
# [11] = tested on: HeLa cells co-expressing the S-protein with ACE2; experiment: Immunocytochemistry of HeLa cells co-expressing S-protein and ACE2 (syncytia, localization); assay type: cell-based; details: 1 μM
# Experimental: Immunocytochemical analyses of HeLa cells co-expressing the S-protein or μS1/S2 with ACE2 in the absence or presence of 1 μM Compound 192 was also investigated under cell-permeabilization (P; V5 and ACE2 antibodies) and non-permeabilization (NP; S2 and ACE2 antibodies) conditions (FIGS. 14, 15). In the absence of Compound 192, the S-protein and ACE2 co-localized abundantly at the cell surface (FIG. 14-a). HeLa cells expressing both S-protein and ACE2 formed many syncytia, associated with reduced cell surface expression of the S-protein, and an even greater reduction of ACE2 (FIG. 14-b).
# Cell culture and transfection were performed on glass coverslips. Cells were washed twice with PBS and fixed with fresh 4% paraformaldehyde for 10 min at room temperature. Following washes, cells were either non-permeabilized or permeabilized with 0.2% Triton X-100 in PBS containing 2% BSA for 5 min, washed, and then blocking was performed with PBS containing 2% BSA for 1 h. Cells were incubated with primary antibodies overnight at 4° C. using an antibody against V5 (mouse monoclonal R960-25; 1:1000; Invitrogen), Spike (mouse monoclonal GTX632604; 1:500; GeneTex) and ACE2 (goat polyclonal AF933; 1:500; RnDsystems). Following wash, corresponding species-specific Alexa-Fluor (488 or 555)-tagged antibodies (Molecular Probes) were incubated for 1 h at room temperature. […]
# [12] = tested on: endogenous furin-like enzymes; assay type: cell-based, African green monkey; details: VeroE6 cells; Compound 192/219 at 0.3, 1 or 10 μM, RVKR at 50 μM; 24 h
# [13] = tested on: endogenous furin-like enzymes; assay type: cell-based, human; details: A549 cells; Compound 192/219 at 0.3, 1 or 10 μM, RVKR at 50 μM; 24 h
# PACE4 (PCSK6) = biological target: T3, PACE4 (PCSK6) (Homo sapiens, UniProt P29122); experiment: Biochemical PC-inhibition assay, substrate FAM-[…]-TAMRA
# T3 construct: PACE4 (PCSK6; 150-693-Tev-Flag-6His); Tev site (C); Flag (C); 6His (C); made in house; host or cells: BacMam transduced CHO cells
# Experimental: (§1) Biochemical assay: The proprotein convertases furin (108-574-Tev-Flag-6His), PC5A (PCSK5; […]-Tev-Flag-6His), PACE4 (PCSK6; 150-693-Tev-Flag-6His), and PC7 (PCSK7; 142-634-Tev-Flag-6His) enzymes were purified from BacMam transduced CHO cells. […] 0.05 μl of each concentration was transferred to the corresponding well of an assay plate, and then 5 μl of enzyme (furin, PCSK5, PCSK6, and PCSK7) in assay buffer (100 mM HEPES pH 7.5, 1 mM CaCl2) and 0.005% Triton X-100) was added using a Multidrop Combi (Thermo) to the compound plates to give a final protein concentration of 0.02, 0.5, 2.5, and 1.0 nM respectively. The plates were mixed by inversion, and following a 30 min preincubation of enzyme with compound at room temperature (˜22° C.), the substrate FAM-[…] -TAMRA (AnaSpec #808143, 5 μl of a 1, 0.25, 0.20, and 0.5 μM solution in assay buffer for furin, PCSK5, PCSK6, and PCSK7 respectively) was added using a Multidrop Combi to the entire assay plate. The plates were centrifuged at 500×g for 1 minute and incubated at room temperature for two hours. Enzyme inhibition was then quantified using an Envision instrument (PerkinElmer). Data were normalized to maximal inhibition determined by 1 μM Decanoyl-Arg-Val-Lys-Arg-Chloromethylketone (Calbiochem #344930). Golgi imaging assay: This assay uses an image-based platform to evaluate the intracellular activity of furin inhibitors. Reactions were performed in black 384-well, tissue culture-treated, clear bottom plates (Greiner). Compounds under analysis were dissolved in DMSO (1.0 mM) and serially diluted 1 to 3 with DMSO through eleven dilutions. This creates a final compound concentration range from 0.00017 to 10 μM, and 0.1 μL of each concentration was transferred to the corresponding well of the assay plate.
# PC5A (PCSK5) = biological target: T4, PC5A (PCSK5) (Homo sapiens, UniProt Q92824); experiment: as above
# T4 construct: fused on or other part: C-terminal Tev site, Flag tag and 6His tag
# Experimental: as §1
# PC7 (PCSK7) = biological target: T5, PC7 (PCSK7) (Homo sapiens, UniProt Q16549); experiment: as above
# T5 construct: PC7 (PCSK7; 142-634-Tev-Flag-6His); Tev site (C); Flag (C); 6His (C); made in house; host or cells: BacMam transduced CHO cells
# Experimental: as §1
# endogenous furin = biological target: T6, endogenous furin (Homo sapiens, UniProt P09958); experiment: Cell-based Golgi imaging assay of U2OS cells (BMP10-mimic cleavage)
# T6 construct: the endogenous protease cleaves GFP from its N-acetylgalactosaminyltransferase-2 Golgi tether; endogenous in cells; host or cells: U2OS
# Experimental: Biochemical assay: The proprotein convertases furin (108-574-Tev-Flag-6His), PC5A (PCSK5; […]-Tev-Flag-6His), PACE4 (PCSK6; 150-693-Tev-Flag-6His), and PC7 (PCSK7; 142-634-Tev-Flag-6His) enzymes were purified from BacMam transduced CHO cells. […] 0.05 μl of each concentration was transferred to the corresponding well of an assay plate, and then 5 μl of enzyme (furin, PCSK5, PCSK6, and PCSK7) in assay buffer (100 mM HEPES pH 7.5, 1 mM CaCl2) and 0.005% Triton X-100) was added using a Multidrop Combi (Thermo) to the compound plates to give a final protein concentration of 0.02, 0.5, 2.5, and 1.0 nM respectively. […] Enzyme inhibition was then quantified using an Envision instrument (PerkinElmer). Data were normalized to maximal inhibition determined by 1 μM Decanoyl-Arg-Val-Lys-Arg-Chloromethylketone (Calbiochem #344930). […]
# Cellular assay: Analyses were initiated by the addition of U2OS cells simultaneously transduced with a BacMam-delivered construct containing a Golgi-targeting sequence followed by a 12-amino acid furin/PCSK cleavage site from Bone Morphogenic Protein 10 (BMP10) and then GFP at the C terminus. […] In the absence of a furin/PCSK inhibitor, the endogenous protease cleaves GFP from its N-acetylgalactosaminyltransferase-2 Golgi tether, releasing GFP into the Golgi lumen where fluorescence is diluted below the threshold of assay sensitivity. […]
# T5 sequence (Q16549 142-634): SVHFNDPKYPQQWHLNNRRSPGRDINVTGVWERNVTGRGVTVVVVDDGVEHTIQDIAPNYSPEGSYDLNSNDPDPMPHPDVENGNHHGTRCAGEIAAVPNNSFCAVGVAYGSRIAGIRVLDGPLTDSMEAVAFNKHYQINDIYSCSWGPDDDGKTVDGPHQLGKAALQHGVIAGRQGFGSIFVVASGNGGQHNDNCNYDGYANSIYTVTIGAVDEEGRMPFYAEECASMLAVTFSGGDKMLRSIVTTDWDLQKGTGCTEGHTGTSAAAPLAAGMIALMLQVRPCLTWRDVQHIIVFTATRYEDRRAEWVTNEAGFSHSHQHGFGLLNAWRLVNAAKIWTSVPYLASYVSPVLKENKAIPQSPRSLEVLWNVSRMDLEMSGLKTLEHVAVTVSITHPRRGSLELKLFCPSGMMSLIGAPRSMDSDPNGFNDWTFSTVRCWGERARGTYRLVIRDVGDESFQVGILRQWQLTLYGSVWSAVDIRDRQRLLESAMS
# T4 sequence (Q92824 115-601): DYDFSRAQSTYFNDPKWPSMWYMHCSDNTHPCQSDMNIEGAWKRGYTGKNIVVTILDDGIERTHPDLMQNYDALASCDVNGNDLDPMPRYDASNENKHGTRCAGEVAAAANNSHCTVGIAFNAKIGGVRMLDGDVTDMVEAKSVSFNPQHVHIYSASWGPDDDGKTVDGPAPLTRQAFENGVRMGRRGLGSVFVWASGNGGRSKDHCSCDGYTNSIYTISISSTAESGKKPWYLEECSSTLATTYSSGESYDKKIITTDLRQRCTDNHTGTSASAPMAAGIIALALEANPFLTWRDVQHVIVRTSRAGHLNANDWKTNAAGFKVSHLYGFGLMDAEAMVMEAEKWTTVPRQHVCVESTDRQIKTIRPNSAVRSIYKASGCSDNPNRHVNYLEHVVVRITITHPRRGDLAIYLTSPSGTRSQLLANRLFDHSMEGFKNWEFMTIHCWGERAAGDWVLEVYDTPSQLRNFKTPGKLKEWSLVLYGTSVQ
# T3 sequence (P29122 150-693): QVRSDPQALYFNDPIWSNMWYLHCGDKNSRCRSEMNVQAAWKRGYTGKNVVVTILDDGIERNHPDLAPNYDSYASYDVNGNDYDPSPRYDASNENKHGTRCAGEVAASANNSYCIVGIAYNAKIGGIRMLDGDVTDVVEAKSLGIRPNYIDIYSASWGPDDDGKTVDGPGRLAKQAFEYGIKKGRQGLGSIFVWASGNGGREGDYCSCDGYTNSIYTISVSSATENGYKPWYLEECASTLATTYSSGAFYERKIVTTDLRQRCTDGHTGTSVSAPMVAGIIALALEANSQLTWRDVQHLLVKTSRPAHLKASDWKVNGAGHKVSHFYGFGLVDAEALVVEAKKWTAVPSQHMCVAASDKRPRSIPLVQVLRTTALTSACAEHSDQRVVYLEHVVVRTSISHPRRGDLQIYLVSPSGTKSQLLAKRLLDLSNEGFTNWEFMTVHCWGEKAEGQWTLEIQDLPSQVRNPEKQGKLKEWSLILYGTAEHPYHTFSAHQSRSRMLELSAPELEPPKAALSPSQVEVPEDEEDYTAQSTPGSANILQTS
# T1 sequence (O15393 whole entry): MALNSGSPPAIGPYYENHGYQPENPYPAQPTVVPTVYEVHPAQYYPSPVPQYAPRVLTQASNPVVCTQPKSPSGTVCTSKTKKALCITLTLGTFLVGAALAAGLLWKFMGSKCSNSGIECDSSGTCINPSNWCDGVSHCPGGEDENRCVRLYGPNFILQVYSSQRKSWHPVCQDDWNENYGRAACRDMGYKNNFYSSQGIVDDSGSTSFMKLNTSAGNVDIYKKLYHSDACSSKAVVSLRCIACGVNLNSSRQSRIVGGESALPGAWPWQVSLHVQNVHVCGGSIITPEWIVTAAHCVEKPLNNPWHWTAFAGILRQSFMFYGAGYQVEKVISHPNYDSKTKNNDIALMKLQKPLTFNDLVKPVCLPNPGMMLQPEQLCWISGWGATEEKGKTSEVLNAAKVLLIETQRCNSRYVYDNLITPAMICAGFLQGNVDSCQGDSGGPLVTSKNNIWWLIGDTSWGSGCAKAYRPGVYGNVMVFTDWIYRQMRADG
# T6 sequence (P09958 108-794): as the sequence (P09958 108-794) above
SMILES,"Viral replication, inhibitors individually (SARS-CoV-2 [1])",inhibition at 0.3 µM [4],S1/S2 and S2′ processing by endogenous furin-like enzymes [5],Generation of S2a and S2b by TMPRSS2 (TMPRSS2 [6]),Viral entry in Calu-3 of pseudovirions packaged in presence of inhibitor [7],Antiviral effects and selectivity index relative to Compound 93 (SARS-CoV-2 [1]),SARS-CoV-2 infection in Calu-3 cells (virus titers) (SARS-CoV-2 [1]),"Viral titers at 12, 24 and 48h post-infection (SARS-CoV-2 [1])",Inhibition of processing of pro-(S) protein to active (S)-protein [8],IC50 (furin [9]),Virus production in infected Vero E6 cells (SARS-CoV-2 [10]),Inhibition of processing of pro-(S) protein to active (S)-protein [12],Inhibition of processing of pro-(S) protein to active (S)-protein [13],IC50 (PACE4 (PCSK6)),IC50 (PC5A (PCSK5)),IC50 (PC7 (PCSK7)),also measured
CN(C)C(=O)COC(=O)Cc1ccc(OC(=O)c2ccc(NC(=N)N)cc2)cc1 [Camostat],meaningfully reduce viral replication,,,,,,,,,,,,,,,,Generation of S1′ (TMPRSS2 [2]): in large part; Generation of sACE2 (TMPRSS2 [2]): inhibited; Formation of S2a and S2b (TMPRSS2 [2]; increasing TMPRSS2): prevented
"CC(=O)NCC1CCN(Cc2cc(Oc3cnc(N4CCN(CCC(C)C(=O)O)CC4)nc3)nc(-c3cc(Cl)cc(Cl)c3)c2)CC1 (stereo not shown) [Compound 192, 4-(4-(5-((4-((4-(acetamidomethyl)piperidin-1-yl)methyl)-6-(3,5-dichloro-phenyl)pyridin-2-yl)oxy)pyrimidin-2-yl)piperazin-1-yl)-2-methylbutanoic acid]",meaningfully reduce viral replication,> 60%,blocked,none of the compounds affected,block viral entry,comparable,strongly reduce,significantly decreased,Inhibition was observed,~7 nM,modestly reduce virus production,somewhat,less inhibition,~7 nM,~7 nM,~7 nM,"IC50 (furin [3]): 4 ± 0.7 nM; Inhibition of S1/S2 and S2′ processing ([5]; 300 nM): almost complete inhibition; Phenotype of S-expressing HeLa cells (syncytia, S and ACE2 localization) [11]: phenocopy those expressing μS1/S2"
"CC(=O)NCC1CCN(Cc2cc(Oc3ccc(N4CCN(CCC(=O)O)CC4)nc3)nc(-c3cc(Cl)cc(Cl)c3)c2)CC1 [Compound 219, 3-(4-(5-((4-((4-(acetamidomethyl)piperidin-1-yl)methyl)-6-(3,5-dichlorophenyl)pyridin-2-yl)oxy)pyridin-2-yl)piperazin-1-yl)propanoicacid]",,> 60%,blocked,none of the compounds affected,block viral entry,comparable,strongly reduce,significantly decreased,Inhibition was observed,~7 nM,modestly reduce virus production,somewhat,less inhibition,~7 nM,~7 nM,~7 nM,
"CCCCCCCCCC(=O)N[C@@H](CCCNC(=N)N)C(=O)N[C@H](C(=O)N[C@@H](CCCCN)C(=O)N[C@@H](CCCNC(=N)N)C(=O)CCl)C(C)C [RVKR-cmk, Decanoyl-Arg-Val-Lys-Arg-CMK, reference compound] (HELM PEPTIDE1{[CCCCCCCCCC(=O)[*:2]].R.V.K.R.[ClC[*:1]]}$$$$V2.0)",,,,,,,,,,~9 nM,,,,~9 nM,~9 nM,~9 nM,IC50 (endogenous furin): 5 nM
